# Assay results from ChEMBL document CHEMBL4706505, “F10, a new camptothecin derivative, was identified as a new orally-bioavailable, potent antitumor agent” (Eur J Med Chem, 2020).
# What was measured:
# [1] = MRT (0 to infinity) in nude BALB/c mouse serum at 8.0 mg/kg incubated up to 9 hrs, po administered via gavage by LC-MS/MS analysis; assay type: ADME, organism-based
# Raji [2] = experiment: Antitumor activity against NPG mouse xenografted with human Raji cell assessed as tumor growth inhibition at 4 mg/kg, ip measured after 5 day; assay type: functional; conditions: 120 h, read-out: TGI
# [3] = Toxicity in Kunming mouse assessed as mortality at 300 mg/kg ip measured once every 30 mins upto 10 days; assay type: organism-based; conditions: in vivo, 0.5 h
# HeLa = experiment: Cytotoxicity against human Hela assessed as reduction in cell viability measured after 72 hrs by MTT assay; assay type: functional, cell-based
# HCT-116 [4] = experiment: Antitumor activity against human HCT-116 cells xenografted in nude BALB/c mouse assessed as tumor growth inhibition at 0.5 mg/kg, po dosed once the other day for 12 times upto 24 days; assay type: functional; conditions: HCT-116, po, 576 h, time day <=24, read-out: TGI
# [5] = Cmax in nude BALB/c mouse serum at 8.0 mg/kg incubated up to 9 hrs, iv administered […] by LC-MS/MS analysis; assay type: ADME, organism-based; set-up: route intravenous, dose 8 mg/kg, time <=9
# LoVo = experiment: Cytotoxicity against human LoVo assessed as reduction in cell viability measured after 72 hrs by MTT assay; assay type: functional, cell-based
# HCT-116 [6] = experiment: Antitumor activity against human HCT-116 cells xenografted in nude BALB/c mouse assessed as tumor growth inhibition at 0.5 mg/kg, ip dosed once the other day for 24 days; assay type: functional; conditions: HCT-116, ip, 576 h, time 24 day, read-out: TGI
# Raji [7] = experiment: Cytotoxicity against human Raji assessed as reduction in cell viability measured after 72 hrs by MTT assay; assay type: functional, cell-based
# HCT-116 [8] = experiment: Induction of apoptosis in human HCT-116 cells assessed as early apoptotic cells level at 1 uM incubated for 24 hrs by Annexin V-FITC/PI staining based flow cytometry (reference value: 0.17%); assay type: functional
# [9] = Clearance in nude BALB/c mouse serum at 8.0 mg/kg incubated up to 9 hrs, po administered via gavage by LC-MS/MS analysis; assay type: ADME, organism-based
# [10] = Toxicity in Kunming mouse assessed as mortality at 250 mg/kg, po measured once every 30 mins upto 10 days; assay type: organism-based; conditions: in vivo, 0.5 h
# Raji [11] = experiment: Antitumor activity against NPG mouse xenografted with human Raji cell assessed as tumor growth inhibition at 2 mg/kg, ip measured after 5 day; assay type: functional; conditions: 120 h, read-out: TGI
# HCT-116 [12] = experiment: Induction of apoptosis in human HCT-116 cells assessed as late apoptotic cells level at 0.03 uM incubated for 24 hrs by Annexin V-FITC/PI staining based flow cytometry (reference value: 0.07%); assay type: functional
# HCT-116 [13] = experiment: Antitumor activity against human HCT-116 cells xenografted in nude BALB/c mouse assessed as tumor growth inhibition at 0.2 mg/kg, ip dosed once the other day for 24 days; assay type: functional; conditions: HCT-116, ip, 576 h, time 24 day, read-out: TGI
# [14] = Solubility of compound in water incubated for 24 hrs under shaking condition by HPLC analysis; assay type: physicochemical
# HCT-116 [15] = experiment: Induction of apoptosis in human HCT-116 cells assessed as early apoptotic cells level at 0.03 uM incubated for 24 hrs by Annexin V-FITC/PI staining based flow cytometry (reference value: 0.17%); assay type: functional
# Raji [16] = experiment: Antitumor activity against NPG mouse xenografted with human Raji cell assessed as tumor growth inhibition at 8 mg/kg, ig measured after 5 day; assay type: functional; conditions: po, 120 h, read-out: TGI
# [17] = Toxicity in NPG mouse xenografted with human Raji cells assessed as body weight loss at 4 mg/kg, ip measured after 5 day; assay type: organism-based; conditions: in vivo, 120 h
# [18] = Toxicity in NPG mouse xenografted with human Raji cells assessed as body weight loss at 2 mg/kg, ip measured on the day 1; assay type: organism-based; conditions: in vivo
# [19] = AUC (0 to infinity) in nude BALB/c mouse serum at 8.0 mg/kg incubated up to 9 hrs, po administered via gavage by LC-MS/MS analysis; assay type: ADME, organism-based; set-up: route oral, dose 8 mg/kg, time <=9; conditions: in vivo
# COLO 205 = experiment: Cytotoxicity against human COLO 205 assessed as reduction in cell viability measured after 72 hrs by MTT assay; assay type: functional, cell-based; conditions: COLO 205, 72 h
# [20] = AUC (0 to infinity) in nude BALB/c mouse serum at 8.0 mg/kg incubated up to 9 hrs, iv administered […] by LC-MS/MS analysis; assay type: ADME, organism-based; set-up: route intravenous, dose 8 mg/kg, time <=9; conditions: in vivo
# [21] = Half life in nude BALB/c mouse serum at 8.0 mg/kg incubated up to 9 hrs, iv administered […] by LC-MS/MS analysis; assay type: ADME, organism-based
# A549 = experiment: Cytotoxicity against human A549 assessed as reduction in cell viability measured after 72 hrs by MTT assay; assay type: functional, cell-based; conditions: A549, 72 h
# [22] = Toxicity in NPG mouse xenografted with human Raji cells assessed as body weight loss at 4 mg/kg, ip measured on the day 1; assay type: organism-based; conditions: in vivo
# [23] = Toxicity in Kunming mouse assessed as mortality at 150 mg/kg ip measured once every 30 mins upto 10 days; assay type: organism-based; conditions: in vivo, 0.5 h
# [24] = Toxicity in Kunming mouse assessed as mortality at 300 mg/kg, po measured once every 30 mins upto 10 days; assay type: organism-based; conditions: in vivo, 0.5 h
# Raji [25] = experiment: Antitumor activity against NPG mouse xenografted with human Raji cell assessed as decrease in tumor volume at 4 mg/kg, ip measured on the 1 day; assay type: functional
# [26] = Toxicity in NPG mouse xenografted with human Raji cells assessed as body weight loss at 8 mg/kg, ig measured on the 1 day; assay type: organism-based; conditions: in vivo, po, 24 h
# [27] = Oral bioavailability in nude BALB/c mouse serum at 8.0 mg/kg incubated up to 9 hrs, via gavage by LC-MS/MS analysis; assay type: ADME, organism-based
# [28] = MRT (0 to infinity) in nude BALB/c mouse serum at 8.0 mg/kg incubated up to 9 hrs, iv administered […] by LC-MS/MS analysis; assay type: ADME, organism-based
compound,measurement,setting,value
CCc1c2c(nc3ccc(OCC(=O)N4CCCCC4)cc13)-c1cc3c(c(=O)n1C2)COC(=O)[C@]3(O)CC,MRT inf,[1],1.15 h
same,inhibition in vivo at 4 mg/kg,Raji [2],136%
same,Activity,[3],Non-Toxic
same,IC50,HeLa,125 nM
same,inhibition in vivo at 0.5 mg/kg,HCT-116 [4],48.1%
same,Cmax,[5],1630 ng/mL
same,IC50,LoVo,81 nM
same,inhibition in vivo at 0.5 mg/kg,HCT-116 [6],92%
same,IC50,Raji [7],2 nM
same,Activity,HCT-116 [8],16.95%
same,CL/F,[9],0.794 mL/min
same,Activity,[10],Non-Toxic
same,inhibition in vivo at 2 mg/kg,Raji [11],104%
same,Activity,HCT-116 [12],10.73%
same,inhibition in vivo at 0.2 mg/kg,HCT-116 [13],71.8%
same,solubility thermodynamic at 24 h,[14],6.22 µg/mL
same,Activity,HCT-116 [15],7.55%
same,inhibition in vivo at 8 mg/kg,Raji [16],81.3%
same,Activity,[17],19.2 g
same,Activity,[18],23.2 g
same,AUC,[19],168.07 h/ng/mL
same,IC50,COLO 205,96 nM
same,AUC,[20],748.96 h/ng/mL
same,half-life,[21],1.03 h
same,IC50,A549,11 nM
same,Activity,[22],24.8 g
same,Activity,[23],Non-Toxic
same,Activity,[24],Toxic
same,Activity,Raji [25],1186 mm3
same,Activity,[26],24.6 g
same,bioavailability,[27],22.4%
same,MRT inf,[28],0.23 h
